According to patent publication US9845500B2, “Enzymatic nucleic acid synthesis: compositions and methods for inhibiting pyrophosphorolysis” (LIFE TECHNOLOGIES CORPORATION, priority 2000, dated 2017):

How the values were obtained:
[1] = biological target: T1, Taq DNA polymerase (Thermus aquaticus, UniProt P19821); experiment: Primer extension assay with a single nucleotide, TOP primer/BOT template duplexes (FIG. 1); assay type: biochemical; settings: for DNA strand extension and misincorporation on a template with multiple Ts: template BOT-3TC, lanes 10, 11
T1 construct: purchased Promega Corporation
T1 sequence (P19821 whole entry): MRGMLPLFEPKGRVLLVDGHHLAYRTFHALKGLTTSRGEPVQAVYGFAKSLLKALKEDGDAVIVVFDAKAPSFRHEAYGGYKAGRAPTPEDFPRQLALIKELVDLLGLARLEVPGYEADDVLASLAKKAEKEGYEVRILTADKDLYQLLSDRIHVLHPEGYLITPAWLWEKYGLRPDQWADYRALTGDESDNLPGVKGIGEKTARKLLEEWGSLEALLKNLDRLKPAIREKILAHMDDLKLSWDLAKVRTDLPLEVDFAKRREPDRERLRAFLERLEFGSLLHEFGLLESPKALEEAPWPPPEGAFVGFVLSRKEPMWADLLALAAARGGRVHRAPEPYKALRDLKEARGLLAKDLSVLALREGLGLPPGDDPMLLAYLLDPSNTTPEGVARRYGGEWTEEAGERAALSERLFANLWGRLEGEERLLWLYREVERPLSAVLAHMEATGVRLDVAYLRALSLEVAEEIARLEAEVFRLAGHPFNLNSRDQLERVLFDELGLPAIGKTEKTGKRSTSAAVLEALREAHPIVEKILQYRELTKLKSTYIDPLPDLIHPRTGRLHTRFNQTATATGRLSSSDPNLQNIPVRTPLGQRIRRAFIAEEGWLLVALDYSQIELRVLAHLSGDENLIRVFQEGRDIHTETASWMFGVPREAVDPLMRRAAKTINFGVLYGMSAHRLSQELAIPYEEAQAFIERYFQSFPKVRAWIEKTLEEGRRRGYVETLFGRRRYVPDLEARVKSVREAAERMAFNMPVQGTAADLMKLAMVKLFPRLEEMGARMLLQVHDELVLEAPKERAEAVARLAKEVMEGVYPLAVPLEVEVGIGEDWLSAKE
Procedure: The ability of a commercially available polymerase to incorporate the novel dNTPs synthesized was monitored using primer extension assays.
This first example illustrates the incorporation of ANS-γ-phosphate dATP to produce extended DNA products from primer/template duplexes. The reactions were carried out in extension buffer and the resulting radiolabeled products were size separated on a 20% denaturing polyacrylamide gel. Data were collected using a phosphorimaging system. Referring now FIG. 1, Lane 1 contained 5′ radiolabeled ‘TOP’ probe in extension buffer. Lane 2 contained Taq DNA polymerase, 50 μM dGTP incubated with a DNA duplex (radiolabeled TOP with excess ‘BOT-Sau’). Lane 3 contained Taq DNA polymerase, 50 μM dATP incubated with a DNA duplex (radiolabeled TOP with excess ‘BOT-Sau’). Lane 4 contained Taq DNA polymerase, 50 μM ANS-γ-dATP incubated with a DNA duplex (radiolabeled TOP with excess ‘BOT-Sau’). Lane 5 contained Taq DNA polymerase, 50 μM dGTP incubated with a DNA duplex (radiolabeled TOP with excess ‘BOT-TC’). Lane 6 contained spill-over from lane 5. Lane 7 contained Taq DNA polymerase, 50 μM dATP incubated with a DNA duplex (radiolabeled TOP with excess ‘BOT-TC’). Lane 8 contained Taq DNA polymerase, 50 μM ANS-γ-dATP incubated with a DNA duplex (radiolabeled TOP with excess ‘BOT-TC’). Lane 9 contained Taq DNA polymerase, 50 μM dGTP incubated with a DNA duplex (radiolabeled TOP with excess ‘BOT-3TC’). Lane 10 contained Taq DNA polymerase, 50 μM dATP incubated with a DNA duplex (radiolabeled TOP with excess ‘BOT-3TC’). Lane 11 contained Taq DNA polymerase, ANS-γ-dATP incubated with a DNA duplex (radiolabeled TOP with excess ‘BOT-3TC’). Lane 12 contained 5′ radiolabeled ‘TOP’ probe in extension buffer. Lane 13 contained 5′ radiolabeled ‘TOP’ probe and Taq DNA polymerase in extension buffer.
In these experiments, Taq DNA polymerase (2.5 units/reaction; Promega Corporation) was incubated in polymerase reaction buffer with 10,000 cpm of 5′-^32P end-labeled ‘TOP’ primer, 10 ng of the indicated single-stranded template, and the specified dNTP. The sequences of the oligonucleotides are shown (Table 1). Extension reactions were incubated for 30 minutes, and terminated by the addition of 1 µl of 0.5 M EDTA. The reactions were lyophilized and resuspended in 3.5 µl of sequencing loading buffer. Reaction products were heat denatured, loaded onto a 20% denaturing polyacrylamide gel, size-separated, and quantified using a phosphorimaging system (Fuji Medical Systems, Inc.).

[2] = test system: DNA polymerases; experiment: Primer extension with several different DNA polymerases, template directing dATP, dATP, dATP, dGTP (FIG. 12); assay type: biochemical; settings: only the indicated nucleotide, 100 μM, 30 minutes
Procedure: Different Polymerases React Differently to the ANS-γ-modified Nucleotides: primer extension reactions were performed to determine the ability of various polymerases to incorporate γ-tagged dNTPs during DNA polymerization. Control reactions contained natural dNTPs to monitor for template-directed nucleotide incorporation as well as for misincorporation as shown in FIG. 12. The reactions were performed in the appropriate buffer and contained the specified polymerase, primer/template duplex (radiolabeled ‘TOP’ primer annealed to ‘BOT-3TC’ template), and only the indicated dNTP. The reactions were carried out at room temperature or at 37° C. for 30 minutes and were stopped by the addition of […]. The volume of the reaction was then reduced to approximately 2-4 μL, loading dye was added and the polymerization products were electrophoresed through a 20% denaturing polyacrylamide gel. Arrows indicate the position of the free labeled ‘TOP’. Asterisks indicate 3-base extension.
Primer extension experiments were performed with several different DNA polymerases to determine whether any of them could incorporate the ANS-γ-phosphate modified nucleotides (FIG. 12). These experiments were performed by incubating the indicated polymerase in appropriate extension buffer, 100 μM ANS-γ-modified dATP, and a 5′-^32P end-labeled primer annealed to a template that directed sequential incorporation of dATP, dATP, dATP dGTP. Positive and negative control reactions containing natural dATP or dGTP, respectively, were run in parallel to monitor template-directed nucleotide incorporation or mis-incorporation. Reactions containing dATP should produce 3-base extension products, whereas those containing dGTP should not produce extended products (due to the absence of dATP). No products longer than 3-bases should result, since no reaction contained more than one nucleotide type. […] Reaction products were heat denatured, loaded onto a 20% denaturing polyacrylamide gel, size-separated (2400 V; 1 hour), and detected via phosphorimaging.

[3] = template BOT-3TC (three A's to be incorporated), lanes 9-11
[4] = template BOT-Sau (first incorporated base should be dGTP), 50 μM nucleotide, lanes 2-4
[5] = template BOT-TC (single A to be incorporated), 50 μM nucleotide, lanes 5-8

Compound | Percent Correct [1, 3] | Percent Mis-Extended [1, 3] | Total Percent Extended [1, 3] | DNA strand extension and misincorporation on a template with multiple Ts [1] | Percent Correct [1, 4] | Percent Mis-Extended [1, 4] | Total Percent Extended [1, 4] | Percent Correct [1, 5] | Percent Mis-Extended [1, 5] | Total Percent Extended [1, 5] | percent extension of the TOP primer (template-directed single base) ([1]; template BOT-TC, first incorporated base should be dATP, lanes 7, 8) | extension products misextended opposite a template C ([1]; template BOT-TC, lane 7, percent of the extension products) | misextended products further extended by the enzyme's terminal transferase activity ([1]; template BOT-TC, lane 7, percent of the misextended products) | extension products formed [2] | decrease in misextensions, tagged nucleotide versus dATP ([1]; G is to be incorporated, dATP the only nucleotide in the reaction medium) | decrease in misextensions, tagged nucleotide versus dATP ([1]; a single A is to be incorporated) | non-specific, single-base extension ([1]; template BOT-Sau, first incorporated base should be dGTP (not added), lane 4 vs lane 1) | decrease in misextensions, tagged nucleotide versus dATP ([1]; three A's are to be incorporated)
Nc1ncnc2c1ncn2[C@H]1C[C@H](O)[C@@H](COP(=O)(O)OP(=O)(O)OP(=O)(O)O)O1 [dATP] | 27.11% | 54.92% | 82.03% | frequently misincorporated opposite a template C | 61.99% | 38.01% | 38.01% | 15.24% | 69.01% | 84.25% | 75% | 60% | 34% | increased amounts of mis-extended products | – | – | – | –
Nc1nc2c(ncn2[C@H]2C[C@H](O)[C@@H](COP(=O)(O)OP(=O)(O)OP(=O)(O)O)O2)c(=O)[nH]1 [dGTP] | 32.20% | 67.80% | 67.80% | – | 52.99% | 19.97% | 72.97% | 24.99% | 75.01% | 75.01% | – | – | – | increased amounts of mis-extended products | – | – | – | –
ANS γ-phosphoamide dATP [ANS-γ-dATP] | 73.43% | 3.87% | 77.31% | multiple modified nucleotides are incorporated | 87.43% | 12.57% | 12.57% | 71.14% | 6.51% | 77.64% | – | – | – | expected 3-base extension products accumulate | ~3 fold | ~11 fold | very little non-specific, single-base extension | ~14 fold
